Experimental data: article PMC11864979, “First-in-class ultralong-target-residence-time p38α inhibitors as a mitosis-targeted therapy for colorectal cancer” (Nature Cancer, 2025)
Values joined by “and” are separate entries in the source; they are usually repeats but may differ in a detail not shown here. Identical values can stand only once. Like-named read-outs stand apart in the source and are kept apart here.

Legend:
KAP organoids = assay: cell viability in KAP organoids (CellTiter-Glo); format: cell-based, mouse; conditions: for viability at 1 µM: Mus musculus
In short: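 Dissociate organoids (TrypLE, DNaseI, Y-27632, 37 °C); seed 1,000–2,000 single cells per well in medium containing 10% GFR Matrigel or Cultrex BME; after 24 h add inhibitor or DMSO; measure viability with CellTiter-Glo and normalize to vehicle.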

subcutaneous KAP CRCs = assay: treatment of subcutaneous KAP tumors in wild-type mice; format: in vivo, mouse; conditions: for Tumor volume (mm³): Fig. 1j, individual tumors
Procedure: Subcutaneous injection, splenic seeding or cecum injection of organoids was performed in 8–10-week-old C57BL/6 N/Crl, Rag2^−/− (B6.Cg-Rag2^tm1.1Cgn/J), or CB17 Scid beige (CB17.Cg-Prkdc^scidLyst^bg-J/Crl) mice, obtained from Charles River. The organoids were dissociated into single cells, washed with PBS and injected in a 1:1 mixture of PBS and Matrigel. For murine organoids, 1 × 10^5 cells were injected into the left and right flanks or the spleen capsule and 2 × 10^6 cells were injected into the cecum wall. For human organoids, 4 × 10^5 cells were injected into the flanks of CB17 Scid beige mice. For splenic seeding and cecum injection, mice were anaesthetized using ketamine (100 mg kg^−1, intraperitoneally) and xylazin (10 mg/kg, intraperitoneally) in NaCl and a small laparotomy below the thorax was performed.
No mice were excluded during treatment studies.

KAP^2D cells [1] = assay: EdU incorporation in KAP^2D cells; format: cell-based, mouse; conditions: replicates, experiment and repetition
Procedure: Immunofluorescence staining on cells and organoids was performed on glass coverslips or tissue culture chambers (Sarstedt). Organoids were plated in medium containing 10% Matrigel or Cultrex BME. The cultures were fixed with 4% paraformaldehyde and stained with specific antibodies and DAPI (Vector Labs). All used antibodies and dilutions are listed in the Nature Portfolio Reporting Summary. For analyzing DNA synthesis, the Molecular Probes Click-iT EdU Alexa Fluor 555 kit was used 24 h after EdU incorporation with DAPI counterstaining. SA-β-Gal staining of cells was performed in cell culture dishes (cells) or tissue culture chambers (organoids) after fixation with 0.5% glutaraldehyde as described above. Human cultures were incubated with X-Gal solution at pH 6.0 for ~4 h.

HCT 116 = assay: cell viability in human CRC cell line HCT 116; format: cell-based; conditions: 4 d
Procedure: To generate KAP^2D cells, KAP organoids were isolated from Matrigel, fragmented by mechanical dissociation and plated without any extracellular matrix on common cell culture dishes. Phoenix-Eco packaging cells (CRL-3214), HCT-15 (CCL-225), HCT 116 (CCL-247), COLO 205 (CCL-222), LS 174T (CL-188), RKO (CRL-2577) and HT-29 (HTB-38) were obtained from the American Type Culture Collection. The cells were cultured at 37 °C and 7% CO2 with RPMI (KAP^2D cells) or DMEM (other cell lines), supplemented with 10% FBS and penicillin–streptomycin. KAP^2D cells were authenticated using PCR (Kras locus and Trp53 locus). Phoenix-Eco packaging cells and HCT-15, HCT 116, COLO 205, LS 174T, RKO and HT-29 cells were authenticated by the provider using short tandem repeat profiling. No commonly misidentified cell lines were used. Mycoplasma contamination was excluded by a PCR-based analysis.
(§1) For in vitro treatment studies, organoids were mechanically dissociated and digested using TrypLE supplemented with 100 µg ml^−1 DNaseI and 10.5 µM Y-27632 dihydrochloride (Invitrogen) at 37 °C. A total of 1,000–2,000 single cells were plated per well in white 96-well plates (Greiner) in culture medium containing 10% GFR Matrigel or Cultrex BME. The treatment with doxycycline (5 µg ml^−1), pharmacological inhibitors or corresponding volumes of DMSO was started 24 h after plating. Doxycycline was obtained from Sigma-Aldrich. […] Cell viability was measured by means of CellTiter-Glo 3D or CellTiter-Glo 2.0 reagent (Promega) according to the manufacturers’ instructions and the Infinite M Plex reader (Tecan, i-control version 3.9.1 software). Results were normalized to vehicle (DMSO) or to shNC. For cell-doubling assays, the cell number was quantified at the corresponding time points using Guava EasyCyte flow cytometer (Luminex, CytoSoft v5.2 software).

KAP^2D cells [2] = assay: annexin V apoptosis analysis in KAP^2D cells; format: cell-based, mouse; conditions: Fig. 5a
Procedure: Apoptosis was analyzed with the FITC annexin V apoptosis detection kit (Biolegend). Both measurements were performed with FACS Canto II (BD) and physical parameters were used to exclude cell debris and cell doublets.

PDO8 = assay: cell viability in patient-derived CRC organoids PDO8; format: cell-based, human
Procedure: as §1

SMILES: O=C(NCCN1CCOCC1)c1ccc2c(c1)C(=O)c1ccc(Nc3ccc(F)c(NC(=O)c4ccccc4)c3)cc1CC2 [Compound 1639]
- Cell viability (%) (KAP organoids; Fig. 2f, 1 µM, replicates): 55.27% and 54.06%
- viability at 1 µM (KAP organoids; Fig. 1g, 1 µM, replicates, read-out: Cell viability (%)): 51.8%
- viability at 1 µM (KAP organoids; Fig. 2f, 1 µM, replicates, read-out: Cell viability (%)): 72.9%
- viability at 1 µM (KAP organoids; drug screen in KAP organoids, 1 µM concentration, n = 3, mean, read-out: Cell viability (% of DMSO)): 38.8%
- induction of cell death in KAP organoids (in words) (KAP organoids; viability assay): moderate but significant induction of cell death
- Tumor volume (subcutaneous KAP CRCs; 0 d of treatment, single tumors, Fig. 3k): 56.0 mm³ and 75.0 mm³ and 48.0 mm³ and 80.0 mm³ and 62.5 mm³ and 40.0 mm³ and 64.0 mm³
- subcutaneous KAP tumor development (in words) (subcutaneous KAP CRCs; 20 mg kg^−1 daily, oral gavage): decelerated CRC development
- Tumor volume (mm³) (subcutaneous KAP CRCs; day 0 of treatment): 56.0 mm³ (2×) and 75.0 mm³ and 48.0 mm³ (3×) and 80.0 mm³ and 62.5 mm³ and 40.0 mm³ and 64.0 mm³
- Tumor volume (mm³) (subcutaneous KAP CRCs; day 2 of treatment): 75.0 mm³ (2×) and 87.5 mm³ and 62.5 mm³ and 125.0 mm³ and 56.0 mm³ (2×) and 72.0 mm³ and 48.0 mm³ and 64.0 mm³
- Tumor volume (mm³) (subcutaneous KAP CRCs; day 4 of treatment): 126.0 mm³ (2×) and 64.0 mm³ and 125.0 mm³ and 72.0 mm³ and 75.0 mm³ and 62.5 mm³ (2×) and 80.0 mm³ and 100.0 mm³
- Tumor volume (mm³) (subcutaneous KAP CRCs; day 6 of treatment): 144.0 mm³ (2×) and 75.0 mm³ (2×) and 112.5 mm³ and 80.0 mm³ and 62.5 mm³ and 56.0 mm³ and 87.5 mm³ and 126.0 mm³
- Tumor volume (mm³) (subcutaneous KAP CRCs; day 8 of treatment): 144.0 mm³ (2×) and 162.0 mm³ and 87.5 mm³ (2×) and 112.5 mm³ and 75.0 mm³ (3×) and 100.0 mm³
- Tumor volume (mm³) (subcutaneous KAP CRCs; day 10 of treatment): 162.0 mm³ and 180.0 mm³ and 87.5 mm³ (4×) and 108.0 mm³ (2×) and 75.0 mm³ and 171.5 mm³
- Tumor volume (mm³) (subcutaneous KAP CRCs; day 12 of treatment): 180.0 mm³ (2×) and 220.5 mm³ and 112.5 mm³ (3×) and 100.0 mm³ and 108.0 mm³ and 64.0 mm³ and 126.0 mm³
- EdU+ cells (KAP^2D cells [1]; Fig. 4j): 87.08% and 89.84% and 80.20% and 80.71% and 77.64% and 85.43% and 87.34% and 80.43%
- EdU+ cells (KAP^2D cells [1]; Fig. 5b): 16.24% and 18.58% and 17.71% and 16.69% and 15.27% and 21.79% and 19.62% and 11.52%
- HCT 116 Cell viability (%) (HCT 116; 0.0137 µM): 91.07% and 92.02% and 85.19% and 84.20% and 84.23%
- HCT 116 Cell viability (%) (HCT 116; 0.0412 µM): 81.63% and 80.34% and 77.04% and 76.76% and 74.10%
- HCT 116 Cell viability (%) (HCT 116; 0.1235 µM): 88.84% and 91.52% and 85.54% and 79.01% and 86.05%
- HCT 116 Cell viability (%) (HCT 116; 0.3704 µM): 94.73% and 98.85% and 85.83% and 87.08% and 84.20%
- HCT 116 Cell viability (%) (HCT 116; 1.1111 µM): 93.31% and 91.15% and 89.63% and 87.68% and 87.77%
- HCT 116 Cell viability (%) (HCT 116; 3.3333 µM): 77.27% and 77.51% and 74.83% and 76.92% and 78.08%
- HCT 116 Cell viability (%) (HCT 116; 10.0000 µM): 46.79% and 45.46% and 36.02% and 37.60% and 41.48%
- viability at 0.0137 µM (HCT 116; Homo sapiens, HCT-116, 96 h, 0.0137 µM, read-out: HCT 116 Cell viability (%)): 89.2%
- viability at 0.0412 µM (HCT 116; Homo sapiens, HCT-116, 96 h, 0.0412 µM, read-out: HCT 116 Cell viability (%)): 83.7%
- viability at 0.1235 µM (HCT 116; Homo sapiens, HCT-116, 96 h, 0.1235 µM, read-out: HCT 116 Cell viability (%)): 89%
- viability at 0.3704 µM (HCT 116; Homo sapiens, HCT-116, 96 h, 0.3704 µM, read-out: HCT 116 Cell viability (%)): 94.1%
- viability at 1.1111 µM (HCT 116; Homo sapiens, HCT-116, 96 h, 1.1111 µM): 90.8%
- viability at 3.3333 µM (HCT 116; Homo sapiens, HCT-116, 96 h, 3.3333 µM, read-out: HCT 116 Cell viability (%)): 74%
- viability at 10 µM (HCT 116; Homo sapiens, HCT-116, 96 h, 10.0000 µM): 45.5%
- Annexin V+ cells (KAP^2D cells [2]; 1 d of treatment): 8.73% and 12.40% and 11.20% and 14.50% and 15.70% and 14.40%
- Annexin V+ cells (KAP^2D cells [2]; 2 d of treatment): 12.80% and 17.60% and 14.40% and 15.50% and 16.80% and 17.40%
- Annexin V+ cells (KAP^2D cells [2]; 3 d of treatment): 16.10% and 14.80% and 15.90% and 19.00% and 17.40% and 18.40%
- Annexin V+ cells (KAP^2D cells [2]; 4 d of treatment): 26.70% and 25.10% and 21.50% and 18.80% and 17.30% and 19.40%
- viability at 0.5 µM (PDO8; Homo sapiens, 96 h, PDO8, 0.5 µM, 4 d): 82.7%
- Cell viability (%) (PDO8; PDO8, 0.5 µM, 4 d, 0.5 µM): 82.90% and 74.01%
- Cell viability (%) (PDO8; PDO8, 1 µM, 4 days, 1 µM): 84.53% and 69.94% and 45.12%
